According to ChEMBL document CHEMBL1208730, “Heteroaryl-linked 5-(1H-benzimidazol-1-yl)-2-thiophenecarboxamides: potent inhibitors of polo-like kinase 1 (PLK1) with improved drug-like properties” (Bioorg Med Chem Lett, 2010):
Converted amounts (≈) assume the structure as drawn.

Key:
[1] = Solubility of the compound in 20% SBE beta-cyclodextrin at pH 6; type: physicochemical
[2] = Clearance in iv dosed mouse; type: ADME, organism-based; details: in vivo

Structure (SMILES) | solubility [1] [µg/mL] | clearance [2] [mL/min/kg]
C[C@@H](Oc1cc(-n2cnc3cc(-c4ccnc(N)c4)ccc32)sc1C(N)=O)c1ccccc1C(F)(F)F | 1000 (≈ 1910 µM) | 38
C[C@@H](Oc1cc(-n2cnc3cc(-c4ccnc(N)n4)ccc32)sc1C(N)=O)c1ccccc1C(F)(F)F | 200 (≈ 381 µM) | 70
C[C@@H](Oc1cc(-n2cnc3cc(-c4ccnc(N5CCN(C)CC5)c4)ccc32)sc1C(N)=O)c1ccccc1C(F)(F)F | 870 (≈ 1430 µM) | 32
C[C@@H](Oc1cc(-n2cnc3cc(-c4ccnc(NCCN(C)C)c4)ccc32)sc1C(N)=O)c1ccccc1C(F)(F)F | 3230 (≈ 5430 µM) | 62
C[C@@H](Oc1cc(-n2cnc3cc(-c4ccnc(NCCS(C)(=O)=O)c4)ccc32)sc1C(N)=O)c1ccccc1Cl | 30 (≈ 50.3 µM) | –
C[C@@H](Oc1cc(-n2cnc3cc(-c4ccnc(NCCO)c4)ccc32)sc1C(N)=O)c1ccccc1Cl | 300 (≈ 562 µM) | 109
C[C@@H](Oc1cc(-n2cnc3cc(-c4ccnc(NC5CCN(C)CC5)c4)ccc32)sc1C(N)=O)c1ccccc1Cl | 1050 (≈ 1790 µM) | 48

The next lines start with the values.

solubility [1] [µg/mL] | clearance [2] [mL/min/kg] | Structure (SMILES)
– | 58 | C[C@@H](Oc1cc(-n2cnc3cc(-c4ccnc(N5CCNCC5)c4)ccc32)sc1C(N)=O)c1ccccc1Cl
500 (≈ 872 µM) | 52 | C[C@@H](Oc1cc(-n2cnc3cc(-c4ccnc(N5CCN(C)CC5)c4)ccc32)sc1C(N)=O)c1ccccc1Cl
2930 (≈ 4990 µM) | 19 | C[C@@H](Oc1cc(-n2cnc3cc(-c4ccc(NC5CCN(C)CC5)nc4)ccc32)sc1C(N)=O)c1ccccc1Cl
530 (≈ 918 µM) | 82 | C[C@@H](Oc1cc(-n2cnc3cc(-c4cnn(CCN5CCOCC5)c4)ccc32)sc1C(N)=O)c1ccccc1Cl
4550 (≈ 7710 µM) | 54 | C[C@@H](Oc1cc(-n2cnc3cc(-c4cnn(CCN5CCN(C)CC5)c4)ccc32)sc1C(N)=O)c1ccccc1Cl
5830 (≈ 10600 µM) | 44 | C[C@@H](Oc1cc(-n2cnc3cc(-c4cnn(CCCN(C)C)c4)ccc32)sc1C(N)=O)c1ccccc1Cl
3120 (≈ 5050 µM) | 44 | CCN1CCN(CCCn2cc(-c3ccc4c(c3)ncn4-c3cc(O[C@H](C)c4ccccc4Cl)c(C(N)=O)s3)cn2)CC1
3 (≈ 6.32 µM) | 70 | C[C@@H](Oc1cc(-n2cnc3cc(-c4ccncc4)ccc32)sc1C(N)=O)c1ccccc1Cl
100 (≈ 209 µM) | 15 | C[C@@H](Oc1cc(-n2cnc3cc(-c4cnn(C)c4)ccc32)sc1C(N)=O)c1ccccc1Cl
